Measured values as given in patent publication US6685617B1, “Inhibitors of α4β1 mediated cell adhesion” (Pharmacia & Upjohn Company, priority 1998, dated 2004).

How the values were obtained:
[1] = molecular target: T1, α4β1 integrin (Jurkat T-cell adhesion to IL-1 stimulated endothelial cell monolayers) (Homo sapiens, UniProt P05556+P13612); experiment: Jurkat-endothelial cell adhesion assay (Jurkat EC); assay type: cell-based; conditions: Jurkat cells on IL-1 stimulated human umbilical vein endothelial cells; read-out: JK/EC (Jurkat EC Assay IC50 value range)
T1 construct: a T-cell line, Jurkat, known to express the α4β1 integrin; host or cells: Jurkat T-cell line
How it was run: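 BCECF-AM-labelled Jurkat cells were mixed with compound, generally 100, 20, 5 and 1.25 μM, and added to HUVEC monolayers (passage ≤6) pre-stimulated 4 hr at 37° C with 0.1 ng/ml IL-1. After 5 min on ice and 20 min at 37° C, washed wells were read by fluorescence as % adhesion relative to no compound.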

[2] = molecular target: T2, α4β1 integrin (Jurkat cell adhesion to immobilized CS-1 derived peptide CLHPGEILDVPST) (Homo sapiens, UniProt P05556+P13612); experiment: Jurkat-CS-1 assay; assay type: cell-based; conditions: Jurkat cells on CS-1 peptide coated plates; read-out: JK/CS-1 (Jurkat CS-1 Assay IC50 value range)
T2 construct: 100 μl of Jurkat cells (2.5×10^6 cells/ml) in DMEM plus BSA; host or cells: Jurkat T-cell line
How it was run: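 CS-1 peptide was SPDP-crosslinked onto HSA-coated plates and blocked with BSA. Jurkat cells (2.5×10^6 cells/ml) in DMEM/BSA were mixed with compound, generally at 100, 20, 5 and 1.25 μM, and allowed to adhere for 1 hr at 37° C. Bound cells were fixed, stained with toluidine blue and quantified by OD590.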

T1 sequence (P13612 34-1032): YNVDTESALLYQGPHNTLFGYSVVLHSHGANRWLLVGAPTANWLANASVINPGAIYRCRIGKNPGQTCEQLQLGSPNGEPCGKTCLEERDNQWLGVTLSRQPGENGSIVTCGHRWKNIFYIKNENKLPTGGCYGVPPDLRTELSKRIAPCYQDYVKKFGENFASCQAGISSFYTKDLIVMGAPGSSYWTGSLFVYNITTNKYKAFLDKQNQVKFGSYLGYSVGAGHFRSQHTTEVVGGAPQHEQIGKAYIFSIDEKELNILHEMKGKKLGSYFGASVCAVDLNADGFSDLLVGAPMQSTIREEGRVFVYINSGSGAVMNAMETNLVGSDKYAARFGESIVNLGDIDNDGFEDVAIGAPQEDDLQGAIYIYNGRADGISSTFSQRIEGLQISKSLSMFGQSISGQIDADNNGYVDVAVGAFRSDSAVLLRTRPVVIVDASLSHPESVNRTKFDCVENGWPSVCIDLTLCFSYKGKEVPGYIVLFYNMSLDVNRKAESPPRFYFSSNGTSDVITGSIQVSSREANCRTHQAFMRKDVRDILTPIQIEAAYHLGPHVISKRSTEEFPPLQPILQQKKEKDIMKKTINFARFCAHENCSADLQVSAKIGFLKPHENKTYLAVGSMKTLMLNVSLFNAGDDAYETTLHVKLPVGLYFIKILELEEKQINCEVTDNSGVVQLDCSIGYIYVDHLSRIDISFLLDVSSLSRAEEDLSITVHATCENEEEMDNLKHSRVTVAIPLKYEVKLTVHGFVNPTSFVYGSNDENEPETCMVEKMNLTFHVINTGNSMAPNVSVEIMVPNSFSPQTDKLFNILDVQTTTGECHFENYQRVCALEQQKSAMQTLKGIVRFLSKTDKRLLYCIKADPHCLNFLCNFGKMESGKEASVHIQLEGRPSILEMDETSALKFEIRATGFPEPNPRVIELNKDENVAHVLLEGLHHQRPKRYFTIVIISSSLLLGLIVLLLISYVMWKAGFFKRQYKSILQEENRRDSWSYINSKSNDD
T1 sequence (P05556 21-798): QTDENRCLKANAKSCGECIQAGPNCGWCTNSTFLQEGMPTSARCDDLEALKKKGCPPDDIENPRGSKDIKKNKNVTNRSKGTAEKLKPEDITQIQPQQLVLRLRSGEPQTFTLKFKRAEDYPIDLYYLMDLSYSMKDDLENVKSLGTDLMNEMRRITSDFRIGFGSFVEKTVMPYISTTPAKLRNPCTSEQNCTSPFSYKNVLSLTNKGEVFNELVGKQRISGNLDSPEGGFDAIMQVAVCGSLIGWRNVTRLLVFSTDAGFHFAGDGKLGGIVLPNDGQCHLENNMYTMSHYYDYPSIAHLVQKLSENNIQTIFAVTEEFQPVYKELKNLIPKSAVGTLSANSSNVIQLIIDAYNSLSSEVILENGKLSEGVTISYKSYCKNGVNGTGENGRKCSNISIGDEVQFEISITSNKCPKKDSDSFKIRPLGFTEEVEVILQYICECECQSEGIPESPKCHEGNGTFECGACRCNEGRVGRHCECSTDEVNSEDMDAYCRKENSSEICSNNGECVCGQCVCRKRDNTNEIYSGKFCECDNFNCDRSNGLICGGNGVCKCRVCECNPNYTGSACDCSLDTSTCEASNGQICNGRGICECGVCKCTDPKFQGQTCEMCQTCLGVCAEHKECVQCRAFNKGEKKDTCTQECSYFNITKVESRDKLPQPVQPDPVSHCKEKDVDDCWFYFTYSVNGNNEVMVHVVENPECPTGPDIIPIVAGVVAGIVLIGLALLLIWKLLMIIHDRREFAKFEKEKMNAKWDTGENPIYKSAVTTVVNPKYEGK
T2 sequence (P13612 34-1032): as the sequence (P13612 34-1032) above
T2 sequence (P05556 21-798): as the sequence (P05556 21-798) above

SMILES | IC50 [1] [µM] | IC50 [2] [µM]
O=C(O)CCC(=O)N1CSC[C@@H]1C(=O)N[C@@H](Cc1ccc(OCc2c(Cl)cccc2Cl)cc1)C(=O)O (relative stereo) [Example 64, [S-(R*,R*)]-4-[[[1-Carboxy-2-[4-[(2,6-dichlorophenyl)methoxy]phenyl]ethyl]amino]carbonyl]-γ-oxo-3-thiazolidinebutanoic Acid] | ≤ 0.25 | ≤ 0.05
O=C(O)CCC(=O)N1CSC[C@H]1C(=O)N[C@@H](Cc1ccc(NC(=O)c2c(Cl)cccc2Cl)cc1)C(=O)O (relative stereo) [Example 67, [R-(R*,S*)]-4-[[[1-Carboxy-2-[4-[(2,6-dichlorobenzoyl)amino]phenyl]ethyl]amino]carbonyl]-γ-oxo-3-thiazolidinebutanoic Acid] | ≥ 1 | 0.05 to 0.75
O=C(O)CCCC(=O)N1CSC[C@H]1C(=O)N[C@@H](Cc1ccc(NC(=O)c2c(Cl)cccc2Cl)cc1)C(=O)O (relative stereo) [Example 68, [R-(R*,S*)]-4-[[[1-Carboxy-2-[4-[(2,6-dichlorobenzoyl)amino]phenyl]ethyl]amino]carbonyl]-δ-oxo-3-thiazolidinepentanoic Acid] | ≥ 1 | 0.05 to 0.75
COC(=O)[C@H](Cc1ccc(NC(=O)c2c(Cl)cccc2Cl)cc1)NC(=O)[C@@H]1CSC(C)(C)N1C(=O)OC(C)(C)C (relative stereo) [Example 72, [R-(R*,S*)]-4-[[[1-[[4-[(2,6-Dichlorobenzoyl)amino]phenyl]methyl]-2-methoxy-2-oxo-ethyl]amino]carbonyl]-2,2-dimethyl-3-thiazolidinecarboxylic Acid 3-(1,1-Dimethylethyl)ester] | ≥ 1 | ≥ 0.75
CC(C)(C)OC(=O)N1[C@H](C(=O)N[C@@H](Cc2ccc(NC(=O)c3c(Cl)cccc3Cl)cc2)C(=O)O)CSC1(C)C (relative stereo) [Example 73, [R-(R*,S*)]-4-[[[Carboxy-2-[4-[(2,6-dichlorobenzoyl)amino]phenyl]ethyl]amino]carbonyl]-2,2-dimethyl-3-thiazolidinecarboxylic Acid 3-(1,1-Dimethylethyl)ester] | ≥ 1 | 0.05 to 0.75
COC(=O)[C@H](Cc1ccc(NC(=O)c2c(Cl)cccc2Cl)cc1)NC(=O)[C@H]1CSC(C)(C)N1C(=O)OC(C)(C)C (relative stereo) [Example 75, [S-(R*,R*)]-4-[[[1-[[4-[(2,6-Dichlorobenzoyl)amino]phenyl]methyl]-2-methoxy-2-oxo-ethyl]amino]carbonyl]-2,2-dimethyl-3-thiazolidinecarboxylic Acid 3-(1,1-Dimethylethyl)ester] | ≥ 1 | ≥ 0.75
CC(C)(C)OC(=O)N1[C@@H](C(=O)N[C@@H](Cc2ccc(NC(=O)c3c(Cl)cccc3Cl)cc2)C(=O)O)CSC1(C)C (relative stereo) [Example 76, [S-(R*,R*)]-4-[[[1-Carboxy-2-[4-[(2,6-dichlorobenzoyl)amino]phenyl]ethyl]amino]carbonyl]-2,2-dimethyl-3-thiazolidinecarboxylic Acid 3-(1,1-Dimethylethyl)ester] | ≤ 0.25 | 0.05 to 0.75
CCOC(=O)N1[C@@H](C(=O)N[C@@H](Cc2ccc(NC(=O)c3c(Cl)cccc3Cl)cc2)C(=O)OC)CSC12CCCC2 (relative stereo) [Example 77, [S-(R*,R*)]-3-[[[1-[[4-[(2,6-Dichlorobenzoyl)amino]phenyl]methyl]-2-methoxy-2-oxoethyl]amino]carbonyl]-1-thia-4-azaspiro[4.4]nonane-4-carboxylic Acid 4-Ethyl Ester] | ≥ 1 | ≥ 0.75
CCOC(=O)N1[C@@H](C(=O)N[C@@H](Cc2ccc(NC(=O)c3c(Cl)cccc3Cl)cc2)C(=O)O)CSC12CCCC2 (relative stereo) [Example 78, [S-(R*,R*)]-3-[[[1-Carboxy-2-[4-[(2,6-dichlorobenzoyl)amino]phenyl]ethyl]amino]carbonyl]-1-thia-4-azaspiro[4.4]nonane-4-carboxylic Acid 4-Ethyl Ester] | ≥ 1 | 0.05 to 0.75
CCOC(=O)N1[C@@H](C(=O)N[C@@H](Cc2ccc(NC(=O)c3c(Cl)cccc3Cl)cc2)C(=O)OC)CSC12CCCCC2 (relative stereo) [Example 79, [S-(R*,R*)]-3-[[[1-[[4-[(2,6-Dichlorobenzoyl)amino]phenyl]methyl]-2-methoxy-2-oxoethyl]amino]carbonyl]-1-thia-4-azaspiro[4.5]decanecarboxylic Acid 4-Ethyl Ester] | ≥ 1 | ≥ 0.75
CCOC(=O)N1[C@@H](C(=O)N[C@@H](Cc2ccc(NC(=O)c3c(Cl)cccc3Cl)cc2)C(=O)O)CSC12CCCCC2 (relative stereo) [Example 80, [S-(R*,R*)]-3-[[[1-Carboxy-2-[4-[(2,6-dichlorobenzoyl)amino]phenyl]ethyl]amino]carbonyl]-1-thia-4-azaspiro[4.5]decane-4-carboxylic Acid 4-Ethyl Ester] | ≥ 1 | ≥ 0.75
CCOC(=O)N1[C@@H](C(=O)N[C@@H](Cc2ccc(NC(=O)c3c(Cl)cccc3Cl)cc2)C(=O)O)C(C)(C)SC1(C)C (relative stereo) [Example 82, [S-(R*,R*)]-4-[[[1-Carboxy-2-[4-[(2,6-dichlorobenzoyl)amino]phenyl]ethyl]amino]carbonyl]-2,2,5,5-tetramethyl-3-thiazolidinecarboxylic Acid 3-Ethyl Ester] | 0.25 to 1 | 0.05 to 0.75
CC1(C)SC[C@H](C(=O)N[C@@H](Cc2ccc(NC(=O)c3c(Cl)cccc3Cl)cc2)C(=O)O)N1C(=O)CCC(=O)O (relative stereo) [Example 85, [S-(R*,R*)]-4-[[[1-Carboxy-2-[4-[(2,6-dichlorobenzoyl)amino]phenyl]ethyl]amino]carbonyl]-2,2-dimethyl-γ-oxo-3-thiazolidinebutanoic Acid] | ≤ 0.25 | ≤ 0.05
COC(=O)CCC(=O)N1[C@@H](C(=O)N[C@@H](Cc2ccc(NC(=O)c3c(Cl)cccc3Cl)cc2)C(=O)OC)C(C)(C)SC1(C)C (relative stereo) [Example 86, [S-(R*,R*)]-4-[[[1-[[4-[(2,6-Dichlorobenzoyl)amino]phenyl]methyl]-2-methoxy-2-oxoethyl]amino]carbonyl]-2,2,5,5-tetramethyl-γ-oxo-3-thiazolidinebutanoic Acid Methyl Ester] | ≥ 1 | ≥ 0.75
CC1(C)SC(C)(C)N(C(=O)CCCC(=O)O)[C@@H]1C(=O)N[C@@H](Cc1ccc(NC(=O)c2c(Cl)cccc2Cl)cc1)C(=O)O (relative stereo) [Example 88, [R-(R*,S*)]-4-[[[1-Carboxy-2-[4-[(2,6-dichlorobenzoyl)amino]phenyl]ethyl]amino]carbonyl]-2,2,5,5-tetramethyl-δ-oxo-3-thiazolidinepentanoic Acid] | ≥ 1 | 0.05 to 0.75
NC(=O)[C@H](Cc1ccc(OCc2c(Cl)cccc2Cl)cc1)NC(=O)[C@H]1CSCN1C(=O)OCCN1CCOCC1 (relative stereo) [Example 89, [S-(R*,R*)]-4-[[[1-[[4-[(2,6-Dichlorophenyl)methoxy]phenyl]methyl]-2-amino-2-oxoethyl]amino]carbonyl]-3-thiazolidinecarboxylic Acid 3-[2-(4-morpholinyl)ethyl]ester] | ≥ 1 | 0.05 to 0.75
O=C(O)CCC(=O)N1CCSC[C@H]1C(=O)N[C@@H](Cc1ccc(NC(=O)c2c(Cl)cccc2Cl)cc1)C(=O)O (relative stereo) [Example 99, [R-(R*,S*)]-3-[[[1-Carboxy-2-[4-[(2,6-dichlorobenzoyl)amino]phenyl]ethyl]amino]carbonyl]-γ-oxo-4-thiomorpholinebutanoic Acid] | ≤ 0.25 | ≤ 0.05
CC(C)(C)OC(=O)N1CCSC[C@H]1C(=O)N[C@@H](Cc1ccc(NC(=O)c2c(Cl)cccc2Cl)cc1)C(=O)O (relative stereo) [Example 100, [R-(R*,S*)]-3-[[[1-Carboxy-2-[4-[(2,6-dichlorobenzoyl)amino]phenyl]ethyl]amino]carbonyl]-4-thiomorpholinecarboxylic Acid 4-(1,1-Dimethylethyl)ester] | 0.25 to 1 | 0.05 to 0.75
COC(=O)[C@H](Cc1ccc(NC(=O)c2c(Cl)cccc2Cl)cc1)NC(=O)[C@H]1CSCN1C(=O)OCc1ccccn1 (relative stereo) [Example 148, [S-(R*,R*)]-4-[[[1-[[4-[(2,6-Dichlorobenzoyl)amino]phenyl]methyl]-2-methoxy-2-oxoethyl]amino]carbonyl]-3-thiazolidinecarboxylic Acid 3-(2-Pyridinylmethyl)ester] | ≤ 0.25 | ≤ 0.05
O=C(Nc1ccc(C[C@H](NC(=O)[C@H]2CSCN2C(=O)OCc2ccccn2)C(=O)O)cc1)c1c(Cl)cccc1Cl (relative stereo) [Example 149, [S-(R*,R*)]-4-[[[-Carboxy-2-[4-[(2,6-dichlorobenzoyl)amino]phenyl]ethyl]amino]carbonyl]-3-thiazolidinecarboxylic Acid 3-(2-pyridinylmethyl)ester] | ≤ 0.25 | ≤ 0.05
COC(=O)[C@H](Cc1ccc(NC(=O)c2c(Cl)cccc2Cl)cc1)NC(=O)[C@H]1CSCN1C(=O)CCCC(=O)O (relative stereo) [Example 150, [S-(R*,R*)]-4-[[[1-[[4-[(2,6-Dichlorobenzoyl)amino]phenyl]methyl]-2-methoxy-2-oxoethyl]amino]carbonyl]-δ-oxo-3-thiazoidinepentanoic Acid] | 0.25 to 1 | 0.05 to 0.75
